pEC50: −log10 of the molar value. Read-outs that look alike come from different tables or passages of the source. Where a SMILES comes first, the peptide text is derived from it. Bridges are numbered along the chain shown (N, C = ends). [ ]: non-standard residue; d: D form. 2Nal = N[C@@H](Cc1ccc2ccccc2c1)C(=O)O; Cit = NC(=O)NCCC[C@H](N)C(=O)O

Format in all cases: cell-based
The nature of data set [1]: Cytotoxicity Test I: virus-uninfected MT-4 cells, MTT method. Conditions: virus-uninfected MT-4 cells, MTT method, read-out: CC50 (Test I), 50% survival concentration. How it is done:
(§1) HIV-1 (IIIB) strain obtained from MOLT/HIV-1 (IIIB) cell previously infected by HIV-1 was used. The polypeptide of the present invention was added to MT-4 CD4^+ T cells infected by HIV in various kinds of concentrations, and a number of living cells after culturing at 37° C. for 5 days was determined by using a 3′-(4,5-dimethylthiazol-2-yl)-2,5-diphenyltetrazolinium bromide (MTT) method. Anti-HIV activity is shown by a concentration (EC50 value), where MT-4 cell death by HIV infection is inhibited by 50%. Cytotoxicity of the peptide according to the present invention was shown by a 50% survival concentration (Test I: CC50 value) by culturing virus-uninfected MT-4 cells with the polypeptide according to the present invention in various concentrations, and determining a number of living cells by the MTT method. Moreover, a number of living cells of human peripheral blood mononuclear cells (monocyte) (PBMC) was determined by trypan blue dyeing method, and shown by a 50% survival concentration (Test II: CC50 value). Respective ratios of the CC50 value and the EC50 value were shown as a selective index (SI). Obtained values were summarized in Table 3 using the conventionally known polypeptides T134 and T140, and an anti-HIV compound: 3′-azido-2′,3′-dideoxythymidine (AZT) used as a medicine as a control anti-HIV agent.
For orientation: Formazan colour is commonly taken as a measure of viable cells.

For data set [2], the system named is virus-uninfected MT-4 cells. Described as above. The settings on record: for SI: CC50 (Test I)/EC50: selective index, MT-4 CC50 over anti-HIV EC50; for cytotoxicity in words, compared with conventional T134/T140: conclusion drawn from Table 3. How it is done: as §1
A further data set concerns HIV-1 (IIIB) strain. Kind of data set: Anti-HIV activity: inhibition of MT-4 cell death by HIV infection (MTT method). Conditions: for pEC50: MT-4 CD4+ T cells infected by HIV-1 (IIIB), 37° C., 5 days, MTT, average of at least three measurements, read-out: EC50 (concentration where MT-4 cell death by HIV infection is inhibited by 50%). How it is done: as §1
[3] abbreviates: human, MT-4 cells (virus-uninfected).

Consider `C[C@@H]1NC(=O)[C@@H]2CCCN2C(=O)[C@@H](CCCCN)NC(=O)[C@H](CCCCN)NC(=O)[C@H](CCCN=C(N)N)NC(=O)[C@H](Cc2ccc(O)cc2)NC(=O)[C@@H](NC(=O)[C@H](Cc2ccc3ccccc3c2)NC(=O)[C@H](CCCN=C(N)N)NC(=O)[C@@H](N)CCCN=C(N)N)CSSC[C@@H](C(=O)N[C@@H](CCCN=C(N)N)C(=O)O)NC(=O)[C@H](CCCNC(N)=O)NC(=O)[C@H](CCCN=C(N)N)NC1=O` [TA14009, H-Arg-Arg-Nal-Cys-Tyr-Arg-Lys-DLys-Pro-Ala-Arg-Cit-Cys-Arg-OH] (H-RR[2Nal]CYRK[dK]PAR[Cit]CR-OH; disulfide 4-13), for which, in data set [1] (setting [3]), the CC50 was more than 80000 nM. For the same molecule, the “SI: CC50 (Test I)/EC50” value in data set [2] is listed as more than 4500.

Take `C[C@H](N)C(=O)N[C@@H](CCCNC(=N)N)C(=O)N[C@@H](Cc1ccc2ccccc2c1)C(=O)N[C@H]1CSSC[C@@H](C(=O)N[C@@H](CCCNC(=N)N)C(=O)O)NC(=O)[C@H](CCCNC(N)=O)NC(=O)[C@H](CCCNC(=N)N)NC(=O)[C@H](Cc2ccc(O)cc2)NC(=O)[C@@H]2CCCN2C(=O)[C@@H](CCCCN)NC(=O)[C@H](CCCCN)NC(=O)[C@H](CCCNC(=N)N)NC(=O)[C@H](Cc2ccc(O)cc2)NC1=O` [TA14001, H-Arg-Arg-Nal-Cys-Tyr-Arg-Lys-DLys-Pro-Tyr-Arg-Cit-Cys-Arg-OH] (H-AR[2Nal]CYRK[dK]PYR[Cit]CR-OH; disulfide 4-13): the pEC50 in the data set on HIV-1 (IIIB) strain is 7.25. Further, the CC50 in data set [1] (setting [3]) is more than 40000 nM. Besides, the “SI: CC50 (Test I)/EC50” value in data set [2] is recorded as more than 750.

Consider `C[C@@H]1NC(=O)[C@H](Cc2ccc(O)cc2)NC(=O)[C@@H]2CCCN2C(=O)[C@@H](CCCCN)NC(=O)[C@H](CCCCN)NC(=O)[C@H](CCCNC(=N)N)NC(=O)[C@H](Cc2ccc(O)cc2)NC(=O)[C@@H](NC(=O)[C@H](Cc2ccc3ccccc3c2)NC(=O)[C@H](CCCNC(=N)N)NC(=O)[C@@H](N)CCCNC(=N)N)CSSC[C@@H](C(=O)N[C@@H](CCCNC(=N)N)C(=O)O)NC(=O)[C@H](CCCNC(N)=O)NC1=O` [TA14010, H-Arg-Arg-Nal-Cys-Tyr-Arg-Lys-DLys-Pro-Tyr-Ala-Cit-Cys-Arg-OH] (H-RR[2Nal]CYRK[dK]PYA[Cit]CR-OH; disulfide 4-13), for which the pEC50 with HIV-1 (IIIB) strain was 7.74. For the same molecule, in data set [1] (setting [3]), the CC50 was more than 80000 nM. In data set [2], the “SI: CC50 (Test I)/EC50” value is more than 4800.

With `C[C@H]1NC(=O)[C@H](CCCCN)NC(=O)[C@H](CCCN=C(N)N)NC(=O)[C@H](Cc2ccc(O)cc2)NC(=O)[C@@H](NC(=O)[C@H](Cc2ccc3ccccc3c2)NC(=O)[C@H](CCCN=C(N)N)NC(=O)[C@@H](N)CCCN=C(N)N)CSSC[C@@H](C(=O)N[C@@H](CCCN=C(N)N)C(=O)O)NC(=O)[C@H](CCCNC(N)=O)NC(=O)[C@H](CCCN=C(N)N)NC(=O)[C@H](Cc2ccc(O)cc2)NC(=O)[C@@H]2CCCN2C1=O` [TA14007, H-Arg-Arg-Nal-Cys-Tyr-Arg-Lys-DAla-Pro-Tyr-Arg-Cit-Cys-Arg-OH] (H-RR[2Nal]CYRK[dA]PYR[Cit]CR-OH; disulfide 4-13), the CC50 in data set [1] (setting [3]) was more than 80000 nM. The “SI: CC50 (Test I)/EC50” value in data set [2] was more than 5200.

`N=C(N)NCCC[C@H](NC(=O)[C@@H]1CSSC[C@H](NC(=O)[C@H](Cc2ccc3ccccc3c2)NC(=O)[C@H](CCCNC(=N)N)NC(=O)[C@@H](N)CCCNC(N)=O)C(=O)N[C@@H](Cc2ccc(O)cc2)C(=O)N[C@@H](CCCNC(=N)N)C(=O)N[C@@H](CCCCN)C(=O)N[C@H](CCCNC(N)=O)C(=O)N2CCC[C@H]2C(=O)N[C@@H](Cc2ccc(O)cc2)C(=O)N[C@@H](CCCNC(=N)N)C(=O)N[C@@H](CCCNC(N)=O)C(=O)N1)C(N)=O` [TC14018, H-Cit-Arg-Nal-Cys-Tyr-Arg-Lys-DCit-Pro-Tyr-Arg-Cit-Cys-Arg-NH2]: in the data set with HIV-1 (IIIB) strain, the pEC50 is 8.92. Besides, the CC50 in data set [1] (setting [3]) was more than 100000 nM. In data set [2], the “cytotoxicity in words, compared with conventional T134/T140” value is on record as “lowered cytotoxicity” and the “SI: CC50 (Test I)/EC50” value is given as more than 83000.

As for `N=C(N)NCCC[C@H](NC(=O)[C@@H]1CSSC[C@H](NC(=O)[C@H](Cc2ccc3ccccc3c2)NC(=O)[C@H](CCCNC(=N)N)NC(=O)[C@@H](N)CCCNC(=N)N)C(=O)N[C@@H](Cc2ccc(O)cc2)C(=O)N[C@@H](CCCNC(N)=O)C(=O)N[C@@H](CCCCN)C(=O)N[C@H](CCCNC(N)=O)C(=O)N2CCC[C@H]2C(=O)N[C@@H](Cc2ccc(O)cc2)C(=O)N[C@@H](CCCNC(=N)N)C(=O)N[C@@H](CCCNC(N)=O)C(=O)N1)C(=O)O` [TC14011, H-Arg-Arg-Nal-Cys-Tyr-Cit-Lys-DCit-Pro-Tyr-Arg-Cit-Cys-Arg-OH], the pEC50 with HIV-1 (IIIB) strain was 9.30. For the same molecule, the CC50 in data set [1] (setting [3]) is more than 100000 nM. Besides, in data set [2], the “cytotoxicity in words, compared with conventional T134/T140” value is “lowered cytotoxicity” and the “SI: CC50 (Test I)/EC50” value was more than 200000.

Consider `C[C@@H]1NC(=O)[C@H](CCCN=C(N)N)NC(=O)[C@H](Cc2ccc(O)cc2)NC(=O)[C@@H](NC(=O)[C@H](Cc2ccc3ccccc3c2)NC(=O)[C@H](CCCN=C(N)N)NC(=O)[C@@H](N)CCCN=C(N)N)CSSC[C@@H](C(=O)N[C@@H](CCCN=C(N)N)C(=O)O)NC(=O)[C@H](CCCNC(N)=O)NC(=O)[C@H](CCCN=C(N)N)NC(=O)[C@H](Cc2ccc(O)cc2)NC(=O)[C@@H]2CCCN2C(=O)[C@@H](CCCCN)NC1=O` [TA14006, H-Arg-Arg-Nal-Cys-Tyr-Arg-Ala-DLys-Pro-Tyr-Arg-Cit-Cys-Arg-OH] (H-RR[2Nal]CYRA[dK]PYR[Cit]CR-OH; disulfide 4-13), for which the CC50 in data set [1] (setting [3]) is more than 80000 nM. In data set [2], the “SI: CC50 (Test I)/EC50” value was more than 1800.

As for `C[C@@H]1NC(=O)[C@@H](CCCCN)NC(=O)[C@H](CCCCN)NC(=O)[C@H](CCCN=C(N)N)NC(=O)[C@H](Cc2ccc(O)cc2)NC(=O)[C@@H](NC(=O)[C@H](Cc2ccc3ccccc3c2)NC(=O)[C@H](CCCN=C(N)N)NC(=O)[C@@H](N)CCCN=C(N)N)CSSC[C@@H](C(=O)N[C@@H](CCCN=C(N)N)C(=O)O)NC(=O)[C@H](CCCNC(N)=O)NC(=O)[C@H](CCCN=C(N)N)NC(=O)[C@H](Cc2ccc(O)cc2)NC1=O` [TA14008, H-Arg-Arg-Nal-Cys-Tyr-Arg-Lys-DLys-Ala-Tyr-Arg-Cit-Cys-Arg-OH] (H-RR[2Nal]CYRK[dK]AYR[Cit]CR-OH; disulfide 4-13), the CC50 in data set [1] was more than 80000 nM. The “SI: CC50 (Test I)/EC50” value in data set [2] is more than 4700.

With `N=C(N)NCCC[C@H](NC(=O)[C@@H]1CSSC[C@H](NC(=O)[C@H](Cc2ccc3ccccc3c2)NC(=O)[C@H](CCCNC(=N)N)NC(=O)[C@@H](N)CCCNC(=N)N)C(=O)N[C@@H](Cc2ccc(O)cc2)C(=O)N[C@@H](CCCNC(N)=O)C(=O)N[C@@H](CCCCN)C(=O)N[C@H](CCCNC(N)=O)C(=O)N2CCC[C@H]2C(=O)N[C@@H](Cc2ccc(O)cc2)C(=O)N[C@@H](CCCNC(=N)N)C(=O)N[C@@H](CCCNC(N)=O)C(=O)N1)C(N)=O` [TC14012, H-Arg-Arg-NaI-Cys-Tyr-Cit-Lys-DCit-Pro-Tyr-Arg-Cit-Cys-Arg-NH2], the pEC50 with HIV-1 (IIIB) strain is 9.40. Also, in the data set with HIV-1 (IIIB) strain (conclusion drawn from Table 3), the “anti-HIV activity in words, compared with T140” value is recorded as “higher anti-HIV activity”. Besides, the CC50 in data set [1] (setting [3]) was more than 100000 nM. Besides, in data set [2], the “cytotoxicity in words, compared with conventional T134/T140” value was “lowered cytotoxicity” and the “SI: CC50 (Test I)/EC50” value is more than 250000.

As for `N=C(N)NCCC[C@H](NC(=O)[C@@H]1CSSC[C@H](NC(=O)[C@H](Cc2ccc3ccccc3c2)NC(=O)[C@H](CCCNC(=N)N)NC(=O)[C@@H](N)CCCNC(=N)N)C(=O)N[C@@H](Cc2ccc(O)cc2)C(=O)N[C@@H](CCCNC(N)=O)C(=O)N[C@@H](CCCCN)C(=O)N[C@H](CCCCN)C(=O)N2CCC[C@H]2C(=O)N[C@@H](Cc2ccc(O)cc2)C(=O)N[C@@H](CCCNC(=N)N)C(=O)N[C@@H](CCCNC(N)=O)C(=O)N1)C(N)=O` [TN14003, H-Arg-Arg-Nal-Cys-Tyr-Cit-Lys-DLys-Pro-Tyr-Arg-Cit-Cys-Arg-NH2] (H-RR[2Nal]CY[Cit]K[dK]PYR[Cit]CR-NH2; disulfide 4-13 (inferred)), the pEC50 in the data set with HIV-1 (IIIB) strain is 9.22. Besides, the CC50 in data set [1] (setting [3]) is more than 100000 nM. Further, in data set [2], the “cytotoxicity in words, compared with conventional T134/T140” value is reported as “lowered cytotoxicity” and the “SI: CC50 (Test I)/EC50” value is more than 166000.

For `C[C@@H]1NC(=O)[C@H](Cc2ccc(O)cc2)NC(=O)[C@@H](NC(=O)[C@H](Cc2ccc3ccccc3c2)NC(=O)[C@H](CCCN=C(N)N)NC(=O)[C@@H](N)CCCN=C(N)N)CSSC[C@@H](C(=O)N[C@@H](CCCN=C(N)N)C(=O)O)NC(=O)[C@H](CCCNC(N)=O)NC(=O)[C@H](CCCN=C(N)N)NC(=O)[C@H](Cc2ccc(O)cc2)NC(=O)[C@@H]2CCCN2C(=O)[C@@H](CCCCN)NC(=O)[C@H](CCCCN)NC1=O` [TA14005, H-Arg-Arg-Nal-Cys-Tyr-Ala-Lys-DLys-Pro-Tyr-Arg-Cit-Cys-Arg-OH] (H-RR[2Nal]CYAK[dK]PYR[Cit]CR-OH; disulfide 4-13), the CC50 in data set [1] (setting [3]) was more than 40000 nM. Besides, in data set [2], the “SI: CC50 (Test I)/EC50” value was more than 4500.

Source of the values: US8435939B2, “Polypeptide anti-HIV agent containing the same” (priority 2000, dated 2013).
